Assay [1] concerns the target Kappa-type opioid receptor (Homo sapiens, UniProt P41145). Briefly: Agonist activity at human KOR expressed in CHOK1 cells assessed as inhibition of forskolin-stimulated cAMP accumulation incubated for 30 mins by luminescence assay. The format is functional, cell-based, CHO-K1.
The target in assay [2] is T1, Mu-type opioid receptor (Homo sapiens, UniProt P35372). The assay can be described thus: Activity at human MOR expressed in CHOK1 cells co-expressing beta-arrestin2 EFC assessed as beta-arrestin2 EFC recruitment measured after 90 mins by PathHunter assay. It is filed as ADME, cell-based, CHO-K1.
T1 sequence (P35372 whole entry): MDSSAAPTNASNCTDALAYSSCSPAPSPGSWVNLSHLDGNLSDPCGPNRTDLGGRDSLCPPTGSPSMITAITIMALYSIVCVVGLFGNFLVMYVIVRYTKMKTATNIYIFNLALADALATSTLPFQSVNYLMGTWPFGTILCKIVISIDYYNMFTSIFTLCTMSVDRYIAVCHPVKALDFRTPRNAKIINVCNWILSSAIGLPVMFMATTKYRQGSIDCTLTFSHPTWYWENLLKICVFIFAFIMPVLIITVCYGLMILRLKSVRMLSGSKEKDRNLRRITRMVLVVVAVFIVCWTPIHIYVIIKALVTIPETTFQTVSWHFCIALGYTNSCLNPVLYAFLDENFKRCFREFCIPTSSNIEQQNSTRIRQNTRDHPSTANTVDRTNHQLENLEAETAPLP
In assay [3] the target is Delta-type opioid receptor (Homo sapiens, UniProt P41143). The assay can be described thus: Agonist activity at human DOR expressed in CHOK1 cells assessed as inhibition of forskolin-stimulated cAMP accumulation incubated for 30 mins by luminescence assay. The format is functional, cell-based, CHO-K1.
Delta-type opioid receptor, sequence (P41143 whole entry): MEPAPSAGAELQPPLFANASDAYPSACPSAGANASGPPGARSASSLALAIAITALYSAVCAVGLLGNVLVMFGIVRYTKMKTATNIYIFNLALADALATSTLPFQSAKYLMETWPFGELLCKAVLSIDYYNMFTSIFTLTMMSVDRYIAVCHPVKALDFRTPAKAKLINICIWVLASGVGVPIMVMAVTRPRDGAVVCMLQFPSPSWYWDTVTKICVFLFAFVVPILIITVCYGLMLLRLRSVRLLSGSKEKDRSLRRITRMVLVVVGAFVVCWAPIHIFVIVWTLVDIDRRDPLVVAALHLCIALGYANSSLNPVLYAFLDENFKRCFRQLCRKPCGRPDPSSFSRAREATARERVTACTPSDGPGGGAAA
Assay [4] deals with T1, Mu-type opioid receptor. Briefly: Agonist activity at human MOR expressed in CHOK1 cells assessed as inhibition of forskolin-stimulated cAMP accumulation incubated for 30 mins by luminescence assay. It is filed as functional, cell-based, CHO-K1.
Assay [5] deals with T1, Mu-type opioid receptor. The assay can be described thus: Activity at human MOR expressed in U2OS cells co-expressing beta-arrestin2 EFC assessed as beta-arrestin2 EFC recruitment by Tango assay. It is filed as ADME, cell-based.
In assay [6] the target is T1, Mu-type opioid receptor. Briefly: Agonist activity at human MOR expressed in CHOK1 cells assessed as induction of beta-arrestin recruitment measured after 90 mins by PathHunter assay relative to control. To be noted: CHO-K1. It is filed as cell-based.

The values below come from ChEMBL document CHEMBL4680063, “G-Protein biased opioid agonists: 3-hydroxy-N-phenethyl-5-phenylmorphans with three-carbon chain substituents at C9” (RSC Med Chem, 2020).

Kappa-type opioid receptor, sequence (P41145 whole entry): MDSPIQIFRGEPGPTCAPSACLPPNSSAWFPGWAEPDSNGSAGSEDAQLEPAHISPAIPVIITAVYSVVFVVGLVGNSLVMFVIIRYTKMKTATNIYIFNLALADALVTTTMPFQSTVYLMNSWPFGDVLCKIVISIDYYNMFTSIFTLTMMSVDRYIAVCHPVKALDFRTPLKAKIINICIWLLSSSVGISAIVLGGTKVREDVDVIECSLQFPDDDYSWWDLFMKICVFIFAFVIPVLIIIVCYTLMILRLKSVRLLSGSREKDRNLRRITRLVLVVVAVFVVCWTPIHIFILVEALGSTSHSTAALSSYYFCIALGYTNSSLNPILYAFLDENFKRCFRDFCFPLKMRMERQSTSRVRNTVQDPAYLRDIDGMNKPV

As for `COC(=O)/C=C/[C@H]1[C@@H]2CCC[C@@]1(c1cccc(O)c1)CCN2CCc1ccccc1`, the EC50 in assay [1] is above 10000 nM; in assay [2], above 25000 nM; in assay [3], 143 nM; in assay [4], 132 nM.
Taken in the same sequence, the figures for `COC(=O)CC[C@@H]1[C@@H]2CCC[C@@]1(c1cccc(O)c1)CCN2CCc1ccccc1` were 323 nM, above 25000 nM, above 10000 nM and 854 nM.
Take `COC(=O)CC[C@@H]1[C@H]2CCC[C@]1(c1cccc(O)c1)CCN2CCc1ccccc1`: the EC50 was above 10000 nM in assay [1]; above 25000 nM in assay [5]; above 25000 nM in assay [2]; above 10000 nM in assay [3]; 31.3 nM in assay [4].
Consider `OCCC[C@@H]1[C@H]2CCC[C@]1(c1cccc(O)c1)CCN2CCc1ccccc1`, for which the EC50 in assay [1] was above 10000 nM; in assay [5] it was above 25000 nM; in assay [2] it was above 25000 nM; in assay [3], above 10000 nM.
On to `CCOC(=O)CC[C@H]1[C@@H]2CCC[C@@]1(c1cccc(O)c1)CCN2CCc1ccccc1`, for which the EC50 in assay [1] is 35.3 nM; in assay [5] it was above 25000 nM; in assay [2], 11.6 nM; in assay [3], 49.1 nM; in assay [4], 0.24 nM.
For `O=C(O)CC[C@H]1[C@@H]2CCC[C@@]1(c1cccc(O)c1)CCN2CCc1ccccc1`, in that order: above 10000 nM, above 25000 nM, above 25000 nM, above 10000 nM and 31.7 nM.
For the compound `CCC[C@H]1[C@@H]2CCC[C@@]1(c1cccc(O)c1)CCN2CCc1ccccc1`, the EC50 in assay [1] was above 10000 nM; in assay [5], above 25000 nM; in assay [2], above 25000 nM; in assay [3], above 10000 nM.
On to `COC(=O)CC[C@H]1[C@@H]2CCC[C@@]1(c1cccc(O)c1)CCN2CCc1ccccc1`, for which the EC50 in assay [5] was 12.5 nM; in assay [2], 1.72 nM; in assay [3], above 10000 nM; in assay [4], 0.46 nM.
For `C[C@@H](Cc1ccsc1)NC(=O)NC[C@H](Cc1ccc(O)cc1)N(C)C`, the maximum response (Emax) in assay [6] amounted to 4.3%.
As for `Oc1cccc([C@@]23CCC[C@H]([C@H]2O)N(CCc2ccccc2)CC3)c1`, the EC50 in assay [1] came out at 323 nM; in assay [2], 6.08 nM; in assay [3] it was 2.6 nM; in assay [4], 0.017 nM.
`OCCC[C@H]1[C@@H]2CCC[C@@]1(c1cccc(O)c1)CCN2CCc1ccccc1`: the EC50 was above 10000 nM in assay [1], above 25000 nM in assay [5], above 25000 nM in assay [2] and 80.9 nM in assay [3].
As to `OC/C=C/[C@H]1[C@@H]2CCC[C@@]1(c1cccc(O)c1)CCN2CCc1ccccc1`, the EC50 is above 10000 nM in assay [1], above 25000 nM in assay [5], above 25000 nM in assay [2] and above 10000 nM in assay [3].
